Results: US9359323B2, “Compound” (priority 2010, dated 2016)

How the values were obtained:
[1] = tested on: mouse embryonic stem cell line E14Tg2a; assay: tert-butyl hydroperoxide (tBHP) challenge of mES cells, MTT viability assay; format: cell-based
Procedure: The mouse embryonic stem cell line E14Tg2a was maintained in a pluripotent state in knockout (KO) DMEM supplemented with leukaemia inhibitory factor (LIF), 15% (v/v) knockout serum replacement, 0.1 mM MEM non-essential amino acids, 2 mM 1-glutamine and 140 μM 2-mercaptoethanol in tissue culture flasks coated with 0.1% (w/v) gelatin.
(§1) mES cells were plated into a 0.1% (w/v) gelatin coated 96-well tissue culture plate at a density of 1.5×10^4 cells per well. The cells were cultured at 37° C. in an atmosphere of 5% CO2 for 20-24 hours before the addition of AO3003, 30 minutes prior to the onset of the tert-butyl hydroperoxide (tBHP) challenge. The cells were incubated with tBHP for 90 minutes at 37° C. (5% CO2) before 20 μl 5 mg/ml 3-(4,5-Dimethyl-2-thiazolyl)-2,5-diphenyl-2H-tetrazolium bromide (MTT) was added to each of the treatment wells. The cells were incubated for a further 3 hours at 37° C. (5% CO2) before all the supernatant was removed from the cells and the insoluble MTT formazan dye, produced by the reduction of MTT by viable cells, was solubilised in 200 μl dimethyl sulfoxide (DMSO). The absorbance of the resulting solution was measured at 540 nm and was proportional to the number of viable mES cells remaining after the tBHP challenge.
as §1, with “of 7.5×10^3” for “of 1.5×10^4”, “AO3003, 20 hours” for “AO3003, 30 minutes”, “insoluble MIT” for “insoluble MTT”

[2] = tested on: mouse β-cell insulinoma line MIN-6; assay: tert-butyl hydroperoxide (tBHP) challenge of MIN-6 cells, MTT viability assay; format: cell-based; details: compound added 30 minutes prior to tBHP, FIG. 3
Procedure: The mouse β-cell insulinoma line MIN-6 was maintained in high glucose DMEM supplemented with 15% heat-inactivated foetal bovine serum (FBS) and 70 μM 2-mercaptoethanol.
as §1, with “MIN-6 cells were” for “mES cells were”, “into a 96-well tissue” for “into a 0.1% (w/v) gelatin coated 96-well tissue”, “density of 2.0×10^4 cells per” for “density of 1.5×10^4 cells per”, “tBHP for 30 minutes at” for “tBHP for 90 minutes at”, “reduction of MIT by viable” for “reduction of MTT by viable”, “tBHP challenge. DMEM is the control viability of cells without peroxide or tBHP.” for “tBHP challenge.”

SMILES: O=c1c(O)c(-c2cc(O)c(O)c(O)c2)oc2cc(C3CCCCC3)ccc12 [AO3003]
- reversal of oxidative stress-induced loss of viability ([1]; 2 μM, compound added 20 hours prior to tBHP challenge, MTT, FIG. 2): significantly reverses oxidative stress-induced loss of viability
- toxicity (control cell viability without tBHP) ([1]; cell viability at 24 h after 0, 1 and 2 μM exposure): not toxic
- period the compound remains bioprotective once incorporated into the cell ([1]; mES cells, tBHP challenge, Experiment 2): > 24 h
- protection against oxidative stress ([1]; mouse embryonic stem cell line, tBHP, summary of Experiments 1 and 2): protects against oxidative stress
- protection against oxidative stress [2]: protects against oxidative stress
